Source: PubChem BioAssay (NCI)
Several values for one entry are separate records, joined by “and”; a condition that tells them apart may be missing. Identical values can stand only once.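 These data come from cells grown in 96-well plates and exposed to compound for 48 hours at five concentrations. GI50: concentration for 50% inhibition of growth. At the TGI there is no net growth.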

How the values were obtained:
Experiment in all cases: NCI anticancer screen, dose series, 48 h
OVCAR-4 ovarian = tested on: OVCAR-4 ovarian
A549 NSCLC = tested on: A549 NSCLC
K-562 leukemia = tested on: K-562 leukemia
LOX IMVI melanoma = tested on: LOX IMVI melanoma
UO-31 renal = tested on: UO-31 renal
RPMI-8226 leukemia = tested on: RPMI-8226 leukemia
COLO 205 colon = tested on: COLO 205 colon
SNB-75 CNS = tested on: SNB-75 CNS
HOP-92 NSCLC = tested on: HOP-92 NSCLC
NCI-H460 lung = tested on: NCI-H460 lung

Row | Compound | GI50 (OVCAR-4 ovarian) [µM] | TGI (OVCAR-4 ovarian) | GI50 (A549 NSCLC) [µM] | TGI (A549 NSCLC) [µM] | GI50 (K-562 leukemia) [µM] | TGI (K-562 leukemia) | GI50 (LOX IMVI melanoma) [µM] | TGI (LOX IMVI melanoma) [µM] | GI50 (UO-31 renal) [µM] | TGI (UO-31 renal) [µM] | GI50 (RPMI-8226 leukemia) [µM] | TGI (RPMI-8226 leukemia) [µM] | GI50 (COLO 205 colon) [µM] | TGI (COLO 205 colon) [µM] | GI50 (SNB-75 CNS) [µM] | TGI (SNB-75 CNS) [µM] | GI50 (HOP-92 NSCLC) [µM] | TGI (HOP-92 NSCLC) | GI50 (NCI-H460 lung) [µM] | TGI (NCI-H460 lung)
1 | CN(C)c1ccc(N=C(C#N)c2nc(N)nc(N3CCOCC3)n2)cc1 | 46.6 | > 100 µM | 38.8 | > 100 | 62.1 | > 100 µM | 22.1 | 53.5 | 71.7 | > 100 | 74.3 | > 100 | > 100 | > 100 | 18.7 | 49.4 | 28.3 | > 100 µM | 48.1 | > 100 µM
2 | COc1cc2c(cc1OCCCN1CCN(CCCOc3cc4c(cc3OC)C(=O)C3CCC[C@H]3C=N4)CC1)N=C[C@@H]1CCCC1C2=O (some centres undefined) | 74.3 | > 100 µM | 35.8 | > 100 | 2.09 | > 100 µM | 3.65 | > 60.7 | 17.1 | > 51.3 | 0.24 | 3.81 | 9.29 | > 75.4 | 24.8 | > 85.4 | 0.597 | > 61.4 µM | 4.45 | > 69.9 µM
3 | Cn1cc(-c2csc(-c3cn(C)c4ncccc34)n2)c2ccccc21 | 7.1 | 44 µM | 0.634 | 23.8 | 0.103 | 16.6 µM | 0.652 | > 100 | 0.71 | > 66.4 | 0.396 | 25.3 | 0.229 | 1.05 | 0.191 | 0.737 | 0.346 | 14.1 µM | 0.336 | 13.5 µM
4 | Nc1nccc(C#Cc2cncnc2Nc2ccc(OCc3cccc(F)c3)c(Cl)c2)n1 | 9.53 | > 25 µM | 5.99 | > 15.6 | 4.24 | > 25 µM | 1.72 | 6.01 | 4.34 | 10.1 | 5.62 | 16.9 | 3.96 | 8.6 | 5.75 | > 14.3 | 3.73 | 8.95 µM | 5.13 | 10.3 µM
5 | Cc1cc(N(CCC#N)CCC#N)ccc1N=Nc1ccc([N+](=O)[O-])cc1 |  | 44.1 µM |  | > 100 |  | > 100 µM |  | 80.6 |  | > 100 |  | > 100 |  | > 100 |  | > 10 |  | > 100 µM |  | > 100 µM
6 | C/C=C(\C)C(=O)O[C@@H]1C=CC(=O)O[C@H]1COC(=O)[C@H](C)O | 11.5 | 31 µM | 18.7 | 51.9 | 5.21 | > 100 µM | 9.64 | 22.2 | 12.7 | 27.5 | 18.8 | 44.2 | 6.57 | 23.7 | 10.8 | 32 | 7.83 | 21.9 µM | 12.7 | 28.6 µM
7 | O=S(=O)(Nc1ccc2ccc3cccc4ccc1c2c34)c1ccccc1 |  | > 100 µM |  | > 100 |  | > 100 µM |  | > 100 |  | > 100 |  | 32.5 |  | > 100 |  | > 100 |  | 98.3 µM |  | > 100 µM
8 | CCOC(=O)C1=C(O)CSC1=Nc1ccc(N=C2SCC(O)=C2C(=O)OCC)cc1 |  | 94.8 µM |  | 93 |  | > 100 µM |  | 32.1 |  | 37.7 |  | > 100 |  | 32.5 |  | 61.4 |  | 64 µM |  | 92 µM
9 | C[CH2][Sn]([CH2]C)([O]C(=O)c1cc(OC)c(OC)c(OC)c1)[O][Sn]([CH2]C)([CH2]C)[O]C(=O)c1cc(OC)c(OC)c(OC)c1 | > 100 | > 100 µM | > 100 | > 100 | 20.9 | > 64.9 µM | 18.5 | 33.2 | > 100 | > 100 | 28.7 | > 100 | 20.3 | 43.6 | 28.6 | > 88.7 | 19.6 | 36.9 µM | > 100 | > 100 µM
10 | C/C(=N\NC(=S)Nc1ccccc1)c1ccccn1 | 0.0362 | 1.78 µM | 0.263 | 2.9 | < 0.01 | 6.93 µM | 0.0395 | 2.04 | 0.0565 | 2.75 | 0.0296 | 39.3 | 0.0119 | 1.48 | 1.86 | 11 | < 0.0162 | 0.607 µM | 0.0692 | 3.74 µM
11 | Fc1cccc(C=NC23CC4CC(CC(C4)C2)C3)c1 |  | > 100 µM |  |  |  | > 100 µM |  | > 100 |  | > 100 |  | > 100 |  | > 100 |  | > 100 |  | > 100 µM |  | > 100 µM
12 | NC(=NCc1ccccc1)N/N=C\c1ccnc2ccccc12 |  | 33 µM |  | 36.9 |  | 24.2 µM |  | 28.5 |  | 22.1 |  | 4.14 |  | 3.21 |  | 21.5 |  | 7.86 µM |  | 31 µM
13 | CCOC(=O)C12CN(C34CC5CC(CC(C5)C3)C4)CC(C(=O)OCC)(C1=O)C(c1ccccc1)OC2c1ccccc1 (centres undefined) |  | > 100 µM |  | > 100 |  | > 100 µM |  | > 100 |  | > 100 |  | > 100 |  | > 100 |  | > 100 |  | 9.73 µM |  | > 100 µM
14 | COc1ccc(C2=NN(c3ccc(S(N)(=O)=O)cc3)C(c3ccc(Cl)cc3)C2)c(O)c1 (centres undefined) | 4.51 | 37.5 µM | 3.38 | 35.1 | 1.8 | 4.09 µM | 4.83 | 17 | 1.97 | 13.5 | 1.84 | 6.71 | 3.59 | 13.3 | 5.87 | 45.1 | 2.97 | 15.6 µM | 2.31 | 6.08 µM
15 | CCOc1ccc(NC(=O)/C(=C/c2ccccc2)C(C)=O)cc1 |  | 27.5 µM |  | 60.8 |  | 41.4 µM |  | 25.2 |  | 21.6 |  | 10.6 |  | 33.1 |  | 17.9 |  | 28 µM |  | 30.9 µM
16 | O=C1c2cccnc2-c2nc(-c3ccccc3)cc3c2c1nc1ccccc13 | 4.33 | 10.1 µM | 6.97 | 21 | 0.658 | 3.91 µM | 6.37 | 32.6 | 3.8 | 11.2 | 0.21 |  | 6 | 19 | 10.5 | 23.1 | 20.3 | 80.4 µM | 0.844 | 3.74 µM
17 | CC[C@]12C=CCN3CC[C@]4(C(=C(C(=O)OC)C1)Nc1ccccc14)[C@@H]32 | 4.4 | 17.5 µM | 12.4 | 31.8 | 3.08 | 15.1 µM | 1.94 | 4.13 | 4.11 | 16.5 | 3.17 | 17.8 | 5.62 | 20 | 2.15 | 7.93 | 2.28 | 9.27 µM | 4.11 | 16.3 µM
18 | COc1cc(-c2cn(-c3ccc(Cl)cc3)c(=O)n2-c2ccccc2)cc(OC)c1OC | 21.4 | > 90.7 µM | > 46.6 | > 100 | > 100 | > 100 µM | 46.2 | > 100 | 89.3 | > 100 | > 35.4 | > 100 | 51 | > 100 | 5.51 | 41.8 | 24.1 | > 88.5 µM | > 80.9 | > 100 µM
19 | COc1ccc2c(c1)C(=O)/C(=C/c1ccc(OCC(=O)c3ccc(Cl)cc3)cc1)O2 | 13.3 | 36.7 µM | 31.4 | > 100 | 1.77 | 4.64 µM | 5.44 | 19.8 | 10.4 | 25.6 | 3.87 | 21.6 | 4.64 | 18 | 12.2 | 79.9 | 15.7 | 37.1 µM | 29.7 | > 100 µM
20 | c1ccc(COc2ccc(Nc3ncnc4ccc(-c5ccco5)cc34)cc2)cc1 | 4.69 | 17.1 µM | 6.83 | > 25 | 9.74 | > 25 µM | 4.36 | 8.96 | 4.76 | > 22.1 | 5.5 | 20.2 | 7.14 | 17.7 | 6.82 | > 18.9 | 0.379 | 7.21 µM | 2.84 | > 25 µM
21 | O=c1[nH]cnc2c1nnn2C1C=C(CO)C(O)C1O (centres undefined) |  | > 100 µM |  | > 100 |  | > 100 µM |  | 81.5 |  | > 100 |  | > 100 |  | > 100 |  | > 100 |  | > 100 µM |  | > 100 µM
22 | Cc1ccc2c(c1)/C(=N\N=C/c1cn(C(C)C)c3ccccc13)C(=O)N2 | 0.277 | > 100 µM | 5.66 | > 100 | 1.96 | > 100 µM | 2.55 | 25.2 | 1.98 | > 100 | 0.396 | 7.31 | 0.324 | 2.08 | 3.2 | > 100 | 1.73 | 67.2 µM | 0.833 | 13.1 µM
23 | Cc1cc(C)c2c(c1C)CN1CN2Cc2c(C)c(C)cc(C)c21 |  | > 100 µM |  | > 100 |  | > 100 µM |  | > 100 |  | > 100 |  | > 100 |  | > 100 |  | 58.1 |  | > 100 µM |  | > 100 µM
24 | Nc1ccc(C(=O)O)c2[nH]c3ccccc3c(=O)c12 |  | > 100 µM |  | > 100 |  | > 100 µM |  | > 100 |  | > 100 |  | > 100 |  | > 100 |  | > 100 |  | > 100 µM |  | > 100 µM
25 | CC1OC(OC2C(OC3CCC4(C)C(CCC5(C)C4CC=C4C6CC(C)(C)CCC6(CO)C(O)CC45C)C3(C)C)OC(C(=O)O)C(OC3OC(COC4OC(CO)C(O)C(O)C4O)C(O)C(O)C3O)C2O)C(O)C(O)C1O (centres undefined) | 3.1 | 12.8 µM | 12.2 | 28.1 | 3.09 | 15.4 µM | 10.7 | 21.6 | 5.45 | 15.9 | 7.79 | 23.5 | 1.75 | 4.39 | 11.2 | 23 | 3.56 | 15.3 µM | 12.1 | 24.5 µM
26 | O=C(O)Cc1ccccc1 | > 1000 | > 1000 µM and 727 µM | > 1000 | > 2000 | > 1000 | > 1000 µM and 1010 µM | > 1000 | > 2000 |  | > 2000 |  | 1420 | > 1000 | > 2000 | > 1000 | > 2000 | > 1000 | > 1000 µM and 1250 µM | > 1000 | > 1000 µM and 933 µM
27 | Oc1ccc(-c2nc(-c3ccc(F)cc3)c(-c3ccncc3)[nH]2)cc1 | 16.5 | > 100 µM | 25.8 | > 100 | 15.9 | > 100 µM | 28.6 | > 100 | 3.44 | 20.2 | 11.7 | 38.2 | 4.77 | 40.5 | 8.86 | > 100 | 17.2 | > 100 µM | 18.8 | 59.7 µM
28 | COc1ccccc1NS(=O)(=O)c1cc(C(C)(C)C)ccc1OCCOc1ccc(C(C)(C)C)cc1S(=O)(=O)Nc1ccccc1OC |  | > 100 µM |  | > 100 |  | > 100 µM |  | > 100 |  | > 100 |  | > 100 |  | > 100 |  | > 100 |  | > 100 µM |  | > 100 µM
29 | S=c1nc(/C=C/c2ccc(Cl)c(Cl)c2)[nH][nH]1 | 65.5 | > 100 µM |  | > 100 |  | > 100 µM |  | > 100 |  | > 100 | 51.4 | > 100 |  |  | > 100 | > 100 | 0.802 | 64.6 µM |  | > 100 µM
